PubChem BioAssay (NCI)
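All cell lines were grown in 96-well plates and treated with compound for 48 hours. At the GI50, growth is halved. TGI is the concentration that stops growth completely.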

Tests used:
Test in all cases: inhibition of tumour cell growth, NCI panel, 48 h
[1] = system: BT-549 breast
[2] = system: SR leukemia
[3] = system: HS 578T breast
[4] = system: MDA-N
[5] = system: T-47D breast
[6] = system: MDA-MB-231 breast
[7] = system: A549 NSCLC
[8] = system: LOX IMVI melanoma
[9] = system: SF-268 CNS
[10] = system: SW-620 colon
[11] = system: 786-0 renal

Row | SMILES | TGI [1] [µM] | TGI [2] [µM] | TGI [3] [µM] | TGI [4] [µM] | TGI [5] [µM] | TGI [6] [µM] | GI50 [1] [µM] | GI50 [2] [µM] | GI50 [3] [µM] | GI50 [7] [µM] | TGI [7] [µM] | GI50 [8] [µM] | TGI [8] [µM] | GI50 [5] [µM] | GI50 [6] [µM] | GI50 [9] [µM] | TGI [9] [µM] | GI50 [10] [µM] | TGI [10] [µM] | TGI [11] [µM]
1 | CC(=O)Oc1ccccc1[C@H]1CC(=O)C[C@H](c2ccccc2OC(C)=O)C12C(=O)c1ccccc1C2=O | 84.5 | > 100 | > 100 | 47.3 | > 100 | 94.6 | – | – | – | – | – | – | – | – | – | – | – | – | – | –
2 | O=C(c1ccccc1)c1nn(-c2ccc(Cl)cc2)c2nc3nc(-c4ccccc4)cc(=O)n3nc12 | 62.8 | 57.6 | > 100 | – | > 100 | > 100 | 26.2 | 22.9 | 28.9 | 66.3 | > 100 | 28.1 | > 100 | 65.9 | 26 | 42.2 | > 100 | 49.5 | > 100 | –
3 | COc1cc2cc(Oc3ccc(NC(=O)Nc4ccc(F)c(C(F)(F)F)c4)cc3)c(C)nc2cc1OCCN1CCCCC1 | – | – | – | – | – | 3.19 | – | – | – | – | – | – | – | – | 1.67 | – | – | – | – | –
4 | CCOC(=O)c1c(O)[nH]c(=O)c(CC)c1C | > 100 | – | > 100 | > 100 | > 100 | > 100 | – | – | – | – | > 100 | – | > 100 | – | – | – | > 100 | – | > 100 | > 100
5 | CN(C)CCN1C(=O)CC[C@@]2(C)C1=CC[C@@H]1[C@@H]2CC[C@@]2(C)[C@H]1CC[C@]2(C)O | > 100 | > 100 | > 100 | > 100 | > 100 | > 100 | – | – | – | – | > 100 | – | > 100 | – | – | – | > 100 | – | > 100 | > 100
6 | CCOC(=O)c1ncoc1[C@H]1COC(C)(C)O1 | – | > 100 | – | – | – | – | – | – | – | – | > 100 | – | > 100 | – | – | – | > 100 | – | > 100 | –
7 | O=C(O)C(CS)NCc1c2ccccc2[n+]([O-])c2ccccc12 (configuration not stated) | – | – | – | – | – | – | – | – | – | – | > 100 | – | > 100 | – | – | – | 91.3 | – | > 100 | > 100
